The values that follow come from publication PMC9465256, “Discovering monoacylglycerol lipase inhibitors by a combination of fluorogenic substrate assay and activity-based protein profiling” (Frontiers in Pharmacology, 2022).

For one assay, the system named is Hela cells. Put plainly: Cell viability assay (CCK-8), Hela. The format is cell-based. To be noted: 48 h; for IC50: Homo sapiens, read-out: Antiproliferation activity (pIC50 ± SEM) Hela (converted). How it is done:
(§1) Various cancer cell lines, including human colon cancer cell line HT-29, ovarian cell line OVCAR-3, melanoma cell line B16-F10, skin squamous cancer cells A431, cervical cancer cells Hela, lung cancer cell lines A549, H1975, and HCC827, were purchased from American type culture collection (ATCC). A431, H1975, B16-F10, OVCAR-3, HT-29, HCC827, Hela, and A549 cells were cultured in Dulbecco’s modified Eagle medium (DMEM, Gibco) containing 10% fetal bovine serum (FBS, Gibco), penicillin (100 U/ml) and streptomycin (100 μg/ml). All cell lines were maintained in a humidified 37°C incubator with 5% CO2. The medium was refreshed every 2–3 days and the cells were passaged at ∼90% confluence by adding the fresh medium, followed by vigorously pipetting the resuspend cells. Of note, the cells were only washed with PBS when a significant number of dead cells were observed.
(§2) The antiproliferation activity of the compounds against the cancer cell lines was evaluated using Cell Counting Kit-8. Briefly, cells (∼1,000 per well) in 100 µl of culture medium were plated in a 96-well plate for 24 h and 100 µl of medium with different concentrations of the tested compounds was added to each well for 48 h. Then 10 μl of CCK8 solution (#CK04, Dojindo) was added and incubated at 37°C for 2 h. The absorbance of each well was measured with a plate reader (BioTeck) at 450 nm. Cell viability was calculated as follows: cell viability (%) = [(As-Ab)/(Ac-Ab)] × 100. Among them, As represents the absorbance of experimental wells, Ab represents the absorbance of blank wells and Ac represents the absorbance of control wells. The experiments were repeated at least three times and IC50 values were determined by plotting a log(inhibitor) v. s normalized response (Variable slope) dose–response curve generated using GraphPad Prism software.

For another assay, the target named is T1, human MAGL (Homo sapiens, UniProt Q99685).
T1 construct: expressed in transfected cells; host or cells: HEK293T (transient transfection; membrane fraction)
T1 sequence (Q99685 1-303): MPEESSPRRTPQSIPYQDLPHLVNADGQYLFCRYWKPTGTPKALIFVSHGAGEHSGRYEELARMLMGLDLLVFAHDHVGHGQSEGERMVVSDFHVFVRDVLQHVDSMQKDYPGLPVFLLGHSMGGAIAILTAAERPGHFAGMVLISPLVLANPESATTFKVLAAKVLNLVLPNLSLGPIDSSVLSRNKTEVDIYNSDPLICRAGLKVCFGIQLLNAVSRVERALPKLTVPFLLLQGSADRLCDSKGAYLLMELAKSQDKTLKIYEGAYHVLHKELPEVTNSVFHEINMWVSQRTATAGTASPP
Briefly: MAGL activity assay (AA-HNA fluorogenic substrate). In kind it is biochemical. Put shortly: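 Activity was taken as the fluorescence slope over 5–15 min after adding AA-HNA (10 µl of a 200 µM solution), with readings every minute for 30 min. Before substrate addition, inhibitors were incubated for 30 min with MAGL-overexpressing membranes from transfected HEK293T cells in HEPES buffer (40 mM, pH 7.5, 0.1 mg/ml BSA).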

Another assay has as its system OVCAR-3 cells. Briefly: Cell viability assay (CCK-8), OVCAR-3. The format is cell-based. To be noted: OVCAR-3, 48 h; for IC50: Homo sapiens, read-out: Antiproliferation activity (pIC50 ± SEM) OVCAR-3 (converted). The protocol: as §1, §2
The subject of another assay is A431 cells. Put plainly: Cell viability assay (CCK-8), A431. In kind it is cell-based. To be noted: for IC50: Homo sapiens, A-431, read-out: Antiproliferation activity (pIC50 ± SEM) A431 (converted). The protocol:
as §1, §2

[1] abbreviates: 100 µM, AA-HNA substrate assay, Supplementary Table 1, read-out: MAGL Inhibition (%).

Where two headings read alike, the source gives them in different places.

In the case of `COc1ccc2cc3[n+](cc2c1OC)CCc1cc2c(cc1-3)OCO2` [compound 17, Berberine chloride], the IC50 with Hela cells was over 10 µM; in the assay with OVCAR-3 cells, over 10 µM; in the assay on A431 cells (A431, 48 h, CCK-8), over 10 µM. Moreover, the activity at 100 µM at human MAGL (setting [1]) came to 82.8%.
By inhibition is commonly meant the relative decrease from the control value, in per cent. Low readings indicate a weak effect, high ones a strong effect. As to `O=c1cc(-c2ccc(O)cc2)oc2cc(O)cc(O)c12` [compound 9, Apigenin], the IC50 in the assay on Hela cells was over 10 µM; in the assay with OVCAR-3 cells, over 10 µM; in the assay on A431 cells (A431, 48 h, CCK-8), over 10 µM. This compound also showed an inhibition at 100 µM against human MAGL (100 µM, AA-HNA assay) of over 80%.
With `Cl.N=c1ccn2c(n1)O[C@H]1[C@H](O)[C@@H](CO)O[C@H]12` [compound 1, Cyclocytidine HCl], in the assay on Hela cells, the “Antiproliferation activity (pIC50 ± SEM) Hela” value was determined as 5.0 ± 0.2. Besides, the activity on human MAGL (setting [1]) came to 31.7%. In the assay on OVCAR-3 cells, the “Antiproliferation activity (pIC50 ± SEM) OVCAR-3” value was determined as 5.7 ± 0.3. Also, the “Antiproliferation activity (pIC50 ± SEM) A431” value in the assay with A431 cells (A431, 48 h, CCK-8) is listed as under 5.
Turning to `COc1ccc(C(C)=O)c(O)c1` [compound 64, Paeonol], the IC50 was over 10 µM in the assay with Hela cells; over 10 µM in the assay with OVCAR-3 cells; 6.31 µM with A431 cells (A431, 48 h, CCK-8). Moreover, at human MAGL (setting [1]), the activity at 100 µM amounted to 102%. Also, the “inhibition of cell viability of A431” value with A431 cells (20 µM, 48 h) is listed as 78%.
In the case of `C[C@H]1COC2=C1C(=O)C(=O)c1c2ccc2c1CCCC2(C)C` [compound 23, Cryptotanshinone], the IC50 is 7.94 µM in the assay with Hela cells; 11 µM at human MAGL (printed in Figure 3B-D, read-out: IC50 (MAGL, AA-HNA assay)); 12.6 µM at human MAGL (recombinant human MAGL, AA-HNA assay, average ± SEM, n = 4, read-out: MAGL inhibition (pIC50) (converted)); 5.01 µM in the assay with OVCAR-3 cells; 7.94 µM with A431 cells (A431, 48 h, CCK-8). At human MAGL (100 µM, AA-HNA assay), this compound had an inhibition at 100 µM of over 80%. In addition, at human MAGL (setting [1]), the activity at 100 µM was determined as 11.2%.
